Data taken from the NIST ThermoML archive (doi:10.1016/j.fluid.2011.12.029).

Conditions: Liquid, Vibrating tube method

CCC[n+]1ccccc1Oc1ccc(Cl)c[n+]1CCOS(=O)(=O)[O-].F[B-](F)(F)F
Conditions	mass density [kg/m3]
283.15 K, 100 kPa	1264.92
283.15 K, 5000 kPa	1266.85
283.15 K, 10000 kPa	1269.01
283.15 K, 15000 kPa	1270.98
283.15 K, 20000 kPa	1273.05
283.15 K, 25000 kPa	1274.97
283.15 K, 30000 kPa	1276.87
283.15 K, 35000 kPa	1278.73
283.15 K, 40000 kPa	1280.58
283.15 K, 45000 kPa	1282.38
283.15 K, 50000 kPa	1284.12
283.15 K, 55000 kPa	1285.76
283.15 K, 60000 kPa	1287.38
283.15 K, 65000 kPa	1289.03
288.15 K, 100 kPa	1260.92
288.15 K, 5000 kPa	1262.99
288.15 K, 10000 kPa	1265.09
288.15 K, 15000 kPa	1267.22
288.15 K, 20000 kPa	1269.26
288.15 K, 25000 kPa	1271.11
288.15 K, 30000 kPa	1273.09
288.15 K, 35000 kPa	1275.02
288.15 K, 40000 kPa	1276.87
288.15 K, 45000 kPa	1278.72
288.15 K, 50000 kPa	1280.38
288.15 K, 55000 kPa	1282.18
288.15 K, 60000 kPa	1283.78
288.15 K, 65000 kPa	1285.51
293.15 K, 100 kPa	1257.14
293.15 K, 5000 kPa	1259.28
293.15 K, 10000 kPa	1261.4
293.15 K, 15000 kPa	1263.43
293.15 K, 20000 kPa	1265.5
293.15 K, 25000 kPa	1267.47
293.15 K, 30000 kPa	1269.5
293.15 K, 35000 kPa	1271.32
293.15 K, 40000 kPa	1273.23
293.15 K, 45000 kPa	1275.01
293.15 K, 50000 kPa	1276.8
293.15 K, 55000 kPa	1278.62
293.15 K, 60000 kPa	1280.22
293.15 K, 65000 kPa	1281.96
298.15 K, 100 kPa	1253.37
298.15 K, 5000 kPa	1255.54
298.15 K, 10000 kPa	1257.73
298.15 K, 15000 kPa	1259.9
298.15 K, 20000 kPa	1262.01
298.15 K, 25000 kPa	1263.98
298.15 K, 30000 kPa	1265.98
298.15 K, 35000 kPa	1267.9
298.15 K, 40000 kPa	1269.81
298.15 K, 45000 kPa	1271.6
298.15 K, 50000 kPa	1273.47
298.15 K, 55000 kPa	1275.21
298.15 K, 60000 kPa	1276.93
298.15 K, 65000 kPa	1278.65
303.15 K, 100 kPa	1249.77
303.15 K, 5000 kPa	1252.02
303.15 K, 10000 kPa	1254.17
303.15 K, 15000 kPa	1256.38
303.15 K, 20000 kPa	1258.37
303.15 K, 25000 kPa	1260.46
303.15 K, 30000 kPa	1262.48
303.15 K, 35000 kPa	1264.47
303.15 K, 40000 kPa	1266.35
303.15 K, 45000 kPa	1268.13
303.15 K, 50000 kPa	1269.94
303.15 K, 55000 kPa	1271.81
303.15 K, 60000 kPa	1273.55
303.15 K, 65000 kPa	1275.21
308.15 K, 100 kPa	1246.14
308.15 K, 5000 kPa	1248.19
308.15 K, 10000 kPa	1250.57
308.15 K, 15000 kPa	1252.6
308.15 K, 20000 kPa	1254.8
308.15 K, 25000 kPa	1256.85
308.15 K, 30000 kPa	1258.87
308.15 K, 35000 kPa	1260.93
308.15 K, 40000 kPa	1262.88
308.15 K, 45000 kPa	1264.72
308.15 K, 50000 kPa	1266.61
308.15 K, 55000 kPa	1268.36
308.15 K, 60000 kPa	1270.11
308.15 K, 65000 kPa	1271.84
313.15 K, 100 kPa	1242.44
313.15 K, 5000 kPa	1244.75
313.15 K, 10000 kPa	1247.02
313.15 K, 15000 kPa	1249.22
313.15 K, 20000 kPa	1251.35
313.15 K, 25000 kPa	1253.46
313.15 K, 30000 kPa	1255.5
313.15 K, 35000 kPa	1257.51
313.15 K, 40000 kPa	1259.52
313.15 K, 45000 kPa	1261.48
313.15 K, 50000 kPa	1263.42
313.15 K, 55000 kPa	1265.2
313.15 K, 60000 kPa	1267
313.15 K, 65000 kPa	1268.66
318.15 K, 100 kPa	1238.82
318.15 K, 5000 kPa	1241.01
318.15 K, 10000 kPa	1243.39
318.15 K, 15000 kPa	1245.52
318.15 K, 20000 kPa	1247.69
318.15 K, 25000 kPa	1249.81
318.15 K, 30000 kPa	1251.93
318.15 K, 35000 kPa	1253.97
318.15 K, 40000 kPa	1255.96
318.15 K, 45000 kPa	1257.93
318.15 K, 50000 kPa	1259.75
318.15 K, 55000 kPa	1261.48
318.15 K, 60000 kPa	1263.53
318.15 K, 65000 kPa	1265.2
323.15 K, 100 kPa	1235.3
323.15 K, 5000 kPa	1237.63
323.15 K, 10000 kPa	1239.98
323.15 K, 15000 kPa	1242.24
323.15 K, 20000 kPa	1244.44
323.15 K, 25000 kPa	1246.62
323.15 K, 30000 kPa	1248.63
323.15 K, 35000 kPa	1250.7
323.15 K, 40000 kPa	1252.76
323.15 K, 45000 kPa	1254.69
323.15 K, 50000 kPa	1256.63
323.15 K, 55000 kPa	1258.52
323.15 K, 60000 kPa	1260.31
323.15 K, 65000 kPa	1262.15
328.15 K, 100 kPa	1231.68
328.15 K, 5000 kPa	1233.97
328.15 K, 10000 kPa	1236.25
328.15 K, 15000 kPa	1238.61
328.15 K, 20000 kPa	1240.87
328.15 K, 25000 kPa	1243.01
328.15 K, 30000 kPa	1245.19
328.15 K, 35000 kPa	1247.33
328.15 K, 40000 kPa	1249.3
328.15 K, 45000 kPa	1251.23
328.15 K, 50000 kPa	1253.26
328.15 K, 55000 kPa	1255.02
328.15 K, 60000 kPa	1256.98
328.15 K, 65000 kPa	1258.79
333.15 K, 100 kPa	1228.25
333.15 K, 5000 kPa	1230.56
333.15 K, 10000 kPa	1232.96
333.15 K, 15000 kPa	1235.23
333.15 K, 20000 kPa	1237.65
333.15 K, 25000 kPa	1239.91
333.15 K, 30000 kPa	1241.9
333.15 K, 35000 kPa	1244.07
333.15 K, 40000 kPa	1246.16
333.15 K, 45000 kPa	1248.15
333.15 K, 50000 kPa	1250.14
333.15 K, 55000 kPa	1252
333.15 K, 60000 kPa	1253.93
333.15 K, 65000 kPa	1255.7
